# Source: ChEMBL document CHEMBL2396533, “Γ-aminobutyric acid(C) (GABAC) selective antagonists derived from the bioisosteric modification of 4-aminocyclopent-1-enecarboxylic acid: amides and hydroxamates” (J Med Chem, 2013)
# Active and inactive are the calls of the source. The rule behind the calls is not given here.
# Experiments:
# [1] = target: T1, Gamma-aminobutyric acid receptor subunit rho-1 (Homo sapiens, UniProt P24046); assay: Antagonist activity at human recombinant GABAA rho1 receptor expressed in Xenopus laevis assessed as inhibition of GABA-induced chloride current production after 2 to 5 days by two-electrode voltage-clamp electrophysiological assay
# T1 sequence (P24046 whole entry): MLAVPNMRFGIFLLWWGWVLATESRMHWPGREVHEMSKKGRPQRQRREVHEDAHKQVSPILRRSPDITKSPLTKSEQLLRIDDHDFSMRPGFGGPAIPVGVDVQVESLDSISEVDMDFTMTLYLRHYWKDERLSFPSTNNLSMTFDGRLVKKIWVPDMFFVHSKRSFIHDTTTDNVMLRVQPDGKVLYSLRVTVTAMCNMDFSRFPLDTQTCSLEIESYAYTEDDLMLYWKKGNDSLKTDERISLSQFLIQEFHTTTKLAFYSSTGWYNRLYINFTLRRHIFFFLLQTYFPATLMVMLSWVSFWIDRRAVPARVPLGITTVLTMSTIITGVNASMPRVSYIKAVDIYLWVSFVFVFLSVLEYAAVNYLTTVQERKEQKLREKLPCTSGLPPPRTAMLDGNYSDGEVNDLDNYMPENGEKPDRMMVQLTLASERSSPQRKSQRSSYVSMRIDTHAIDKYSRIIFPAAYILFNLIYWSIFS
# [2] = target: T2, GABA-A receptor; alpha-1/beta-2/gamma-2 (Homo sapiens) (UniProt P14867+P47870+P18507); assay: Agonist activity at human recombinant GABAAalpha1beta2gamma2L receptor expressed in Xenopus laevis assessed as induction of chloride current production at 300 uM after 2 to 5 days by two-electrode voltage-clamp electrophysiological assay relative to GABA
# [3] = target: T2, GABA-A receptor; alpha-1/beta-2/gamma-2 (Homo sapiens); assay: Antagonist activity at human recombinant GABAAalpha1beta2gamma2L receptor expressed in Xenopus laevis assessed as inhibition of GABA-induced chloride current production at 300 uM after 2 to 5 days by two-electrode voltage-clamp electrophysiological assay relative to control
# [4] = target: T1, Gamma-aminobutyric acid receptor subunit rho-1; assay: Antagonist activity at human recombinant GABAA rho1 receptor expressed in Xenopus laevis assessed as inhibition of GABA-induced chloride current production at 300 uM after 2 to 5 days by two-electrode voltage-clamp electrophysiological assay relative to control
IC50 [1] [µM],Activity [2],inhibition [3],inhibition [4] [%],SMILES
408,inactive,inactive,–,CNC(=O)C1=CCC(N)C1 (racemic)
570,inactive,inactive,–,CCCNC(=O)C1=CCC(N)C1 (racemic)
12.9,4.3%,–,–,NC1CC=C(C(=O)NO)C1 (racemic)
81.5,6.3%,–,–,CONC(=O)C1=CCC(N)C1 (racemic)
153,2.5%,–,–,CCONC(=O)C1=CCC(N)C1 (racemic)
–,inactive,inactive,20.5,CCCCCNC(=O)C1=CCC(N)C1 (racemic)

# The next lines start with the compound.
SMILES,IC50 [1] [µM],Activity [2],inhibition [3],inhibition [4] [%]
C=CCONC(=O)C1=CCC(N)C1 (racemic),115,1.7%,–,–
NC(=O)C1=CCC(N)C1 (racemic),9.6,–,23.3%,–
NC1CC=C(C(=O)O)C1 (racemic),6.6,59.7%,–,–
Cc1ccc(NC(=O)C2=CCC(N)C2)cc1 (racemic),–,inactive,inactive,11.3
